Experimental data reported in US12655107B2 (The United States of America, as represented by the …, priority 2018, dated 2026).
Several values for one entry are separate records, joined by “and”; a condition that tells them apart may be missing. Equal values may be shown once.

How the values were obtained:
Tdp1 = Tdp1 (Homo sapiens, UniProt Q9NUW8); experiment: Tdp1 inhibition gel-based assay; conditions: IC50 Tdp1 (μM), Table 6; replicate values listed in one cell
Protocol: The indenoisoquinoline 10 was used as the positive control.
Gel-based assay. […] Gels were dried and exposed to a PhosphorImager screen (GE Healthcare). Gel images were scanned using a Typhoon FLA 9500 scanner (GE Healthcare), and densitometry analyses were performed using the ImageQuant software (GE Healthcare).

Top1 = target: T1, Top1 (Homo sapiens, UniProt P11387); experiment: Top1-mediated DNA cleavage assay; type: biochemical; conditions: for Top1 cleavage: inhibition relative to 1 μM CPT, Table 6
T1 sequence (P11387 1-765): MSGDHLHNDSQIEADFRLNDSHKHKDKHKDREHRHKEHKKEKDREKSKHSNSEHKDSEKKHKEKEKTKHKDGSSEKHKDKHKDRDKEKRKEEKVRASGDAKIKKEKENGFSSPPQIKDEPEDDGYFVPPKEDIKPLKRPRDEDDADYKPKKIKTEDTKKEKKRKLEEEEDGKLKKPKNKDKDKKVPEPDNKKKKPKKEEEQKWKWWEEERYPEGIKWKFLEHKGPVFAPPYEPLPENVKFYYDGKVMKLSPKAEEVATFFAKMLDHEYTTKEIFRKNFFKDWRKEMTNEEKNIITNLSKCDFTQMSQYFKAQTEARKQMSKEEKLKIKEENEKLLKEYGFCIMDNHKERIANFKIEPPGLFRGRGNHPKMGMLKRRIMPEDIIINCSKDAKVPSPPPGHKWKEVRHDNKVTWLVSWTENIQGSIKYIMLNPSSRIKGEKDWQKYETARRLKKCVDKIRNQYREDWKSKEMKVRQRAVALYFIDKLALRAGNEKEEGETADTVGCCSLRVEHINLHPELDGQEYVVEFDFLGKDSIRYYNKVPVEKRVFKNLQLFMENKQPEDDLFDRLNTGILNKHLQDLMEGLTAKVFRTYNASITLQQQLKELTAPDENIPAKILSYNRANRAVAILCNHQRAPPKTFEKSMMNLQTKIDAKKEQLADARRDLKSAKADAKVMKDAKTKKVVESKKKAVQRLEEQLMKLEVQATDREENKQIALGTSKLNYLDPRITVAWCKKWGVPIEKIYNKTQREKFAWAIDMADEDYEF

Chain of Tdp1 (Q9NUW8 whole entry): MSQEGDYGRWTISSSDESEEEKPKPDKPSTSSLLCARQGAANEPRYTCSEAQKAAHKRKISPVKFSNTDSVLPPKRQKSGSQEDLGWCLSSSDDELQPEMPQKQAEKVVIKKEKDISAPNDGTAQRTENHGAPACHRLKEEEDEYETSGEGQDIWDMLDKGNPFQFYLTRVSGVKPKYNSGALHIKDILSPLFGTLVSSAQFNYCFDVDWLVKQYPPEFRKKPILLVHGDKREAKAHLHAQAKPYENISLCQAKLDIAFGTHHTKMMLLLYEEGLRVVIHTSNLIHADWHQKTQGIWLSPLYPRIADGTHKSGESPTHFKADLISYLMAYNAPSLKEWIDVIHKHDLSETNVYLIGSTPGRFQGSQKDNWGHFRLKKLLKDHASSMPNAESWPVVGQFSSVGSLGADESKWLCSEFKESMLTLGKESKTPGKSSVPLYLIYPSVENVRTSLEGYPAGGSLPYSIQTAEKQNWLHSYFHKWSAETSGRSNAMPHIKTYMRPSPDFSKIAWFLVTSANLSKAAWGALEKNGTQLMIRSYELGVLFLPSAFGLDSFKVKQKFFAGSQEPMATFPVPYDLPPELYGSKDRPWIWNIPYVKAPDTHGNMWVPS

Compound	IC50 (Tdp1)	Top1 cleavage (Top1)	TOP1 inhibition (Top1; graded relative to CPT at 1 μM, Table 7)
CN(C)CCn1c(=O)c2c(O)c(O)ccc2c2ccc3cc4c(cc3c21)OCO4 [TWL-218A]		+++ (+++ is 75-95%)	
COc1cc2c[n+](CCCn3ccnc3)c3c4cc5c(cc4ccc3c2cc1OC)OCO5 [NTD-192]	81.3 ± 14.5 µM		
COc1cc2c(ccc3c4cc(OC)c(OC)cc4c(=O)n(CCN(C)C)c23)cc1O [TWL-125]	65 µM and 50 µM	+ (+ is 20-50%)	
COc1cc2c(=O)n(CCN(C)C)c3c4cc5c(cc4c(OC)cc3c2cc1OC)OCO5 [TWL-246]		++ (++ is 50-75%)	
CN(C)CCn1c(=O)c2ccccc2c2ccc3ccccc3c21 [TWL-5]	75.9 µM and > 111 µM (2×) and 64.6 µM	+ (+ is 20-50%)	
COc1cc2c(cc1O)c(=O)n(CCN(C)C)c1c3cc4c(cc3ccc21)OCO4 [TWL-113]	> 111 µM (2×) and 65 µM	+ (+ is 20-50%)	
COc1ccc2c(c1O)c(=O)n(CCN(C)C)c1c3cc4c(cc3ccc21)OCO4 [TWL-211]	11 µM and 30 µM and 72 µM	+ (+ is 20-50%)	
COc1cc2c(NCCCn3ccnc3)nc3c4cc5c(cc4ccc3c2cc1OC)OCO5 [NTD-314]	> 111 µM	+ (+ is 20-50%)	
CN(C)CCn1c(=O)c2ccccc2c2ccc3cc(Br)ccc3c21 [TWL-53]	> 111 µM		
COc1cc2c(NCCN3CCNCC3)nc3c4cc5c(cc4ccc3c2cc1OC)OCO5 [NTD-311]	> 111 µM		
CCOC(=O)COc1nc2c3cc4c(cc3ccc2c2cc(OC)c(OC)cc12)OCO4 [NTD-334]	> 111 µM		
COc1cc2c(OCCCN3CCN(C(C)=O)CC3)nc3c4cc5c(cc4ccc3c2cc1OC)OCO5 [NTD-205]	> 111 µM	++ (++ is 50-75%)	
COc1cc2ccc3c4ccccc4c(=O)n(CCN(C)C)c3c2cc1OC [TWL-76H]	> 111 µM		
CCN(CC)CCSc1nc2c3cc4c(cc3ccc2c2cc(OC)c(OC)cc12)OCO4 [NTD-404]	> 111 µM	++ (++ is 50-75%)	
CN(C)CCn1c(=O)c2c3c(ccc2c2ccc4ccccc4c21)OCO3 [TWL-185]	> 111 µM	+ (+ is 20-50%)	
COc1cc2c(OCCCOC(=O)c3ccc(Cl)cc3)nc3c4cc5c(cc4ccc3c2cc1OC)OCO5 [NTD-210]	> 111 µM	+ (+ is 20-50%)	
COc1cc2c(SCCN(C)C)nc3c4cc5c(cc4ccc3c2cc1OC)OCO5 [NTD-403]	> 111 µM	++ (n = 2) (++ is 50-75%)	
COc1cc2c(OCCCOC(=O)c3ccccc3)nc3c4cc5c(cc4ccc3c2cc1OC)OCO5 [NTD-208]	> 111 µM	+ (+ is 20-50%)	
COc1cccc2c1ccc1c3ccccc3c(=O)n(CCN(C)C)c21 [TWL-26]	> 111 µM	+ (+ is 20-50%)	
CN(C)CCn1c(=O)c2cc(O)c(O)cc2c2ccc3cc4c(cc3c21)OCO4 [TWL-170]	> 111 µM	+ (+ is 20-50%)	
COc1cc2c(NCCN)nc3c4cc5c(cc4ccc3c2cc1OC)OCO5 [NTD-325]	72 µM and 107 µM	0 (0 is inactive)	
COc1ccc2ccc3c4ccccc4c(=O)n(CCN(C)C)c3c2c1 [TWL-33]	> 111 µM	+ (+ is 20-50%)	
CN(C)CCn1c(=O)c2cc(O)ccc2c2ccc3ccccc3c21 [TWL-25A]	> 111 µM (2×) and 74.1 µM and 75.9 µM	+ (+ is 20-50%)	
COc1cc2ccc3c4ccc5c(c4c(=O)n(CCN(C)C)c3c2cc1OC)OCO5 [TWL-189]	> 111 µM	+ (+ is 20-50%)	
CCN1CCN(CCCOc2nc3c4cc5c(cc4ccc3c3cc(OC)c(OC)cc23)OCO5)CC1 [NTD-207]	> 111 µM	+ (+ is 20-50%)	
CCC(CO)Nc1nc2c3cc4c(cc3ccc2c2cc(OC)c(OC)cc12)OCO4 (centres unmarked) [NTD-363]		+ (+ is 20-50%)	
COc1cc2c(=O)n(CCN(C)P3(=O)OCCO3)c3c4cc5c(cc4ccc3c2cc1OC)OCO5 [Compound 57, 2,3-dimethoxy-12-(2-(methyl(2-oxido-1,3,2-dioxaphospholan-2-yl)amino)ethyl)-[1,3]dioxolo[4′,5′:4,5]benzo[1,2-c]phenanthridin-13(12H)-one]			++ (++, between 50% and 75% activity)

Further lines, with some results ahead:

IC50 (Tdp1)	Top1 cleavage (Top1)	Compound	TOP1 inhibition (Top1; graded relative to CPT at 1 μM, Table 7)
> 111 µM		CN(C)CCn1c(=O)c2c3c(ccc2c2ccc4cc5c(cc4c21)OCO5)OCO3 [TWL-191]	
> 111 µM	+ (+ is 20-50%)	CCN(CC)CCNc1nc2c3cc4c(cc3ccc2c2cc(OC)c(OC)cc12)OCO4 [NTD-305]	
> 111 µM	+ (+ is 20-50%)	COc1cc2c(=O)n(CCN(C)C)c3c4cc5c(cc4ccc3c2cc1O)OCO5 [TWL-119]	
38 µM	0 (0 is inactive)	COc1cc2c(NCCCN(C)C)nc3c4cc5c(cc4ccc3c2cc1OC)OCO5 [NTD-301]	
> 111 µM		COc1cc2ccc3c4cc(OC)c(OC)cc4c(=O)n(CCN(C)C)c3c2cc1O [TWL-131]	
> 111 µM		COc1cc2ccc3c4cc(OC)c(OC)cc4c(=O)n(CCN(C)C)c3c2cc1OC [TWL-48]	
> 111 µM	+ (+ is 20-50%)	COc1cc2c(OCCCOC(=O)c3ccc(Br)cc3)nc3c4cc5c(cc4ccc3c2cc1OC)OCO5 [NTD-209]	
> 111 µM		C=CCOc1nc2c3cc4c(cc3ccc2c2cc(OC)c(OC)cc12)OCO4 [NTD-332]	
> 111 µM	+ (+ is 20-50%)	COc1ccc2c(ccc3c4ccccc4c(=O)n(CCN(C)C)c23)c1 [TWL-9]	
> 111 µM	+ (+ is 20-50%)	COc1ccc2c(=O)n(CCN(C)C)c3c4ccccc4ccc3c2c1 [TWL-17]	
49.4 ± 1.4 µM	+ (+ is 20-50%)	COc1ccc2c(c1)c(=O)n(CCN(C)C)c1c3ccccc3ccc21 [TWL-25]	
> 111 µM	+ (+ is 20-50%)	COc1cc2c(=O)n(CCN(C)C)c3c4ccccc4ccc3c2cc1OC [TWL-44]	
> 111 µM	+ (n = 2) (+ is 20-50%)	COc1cc2c(NCCN3CCCCC3)nc3c4cc5c(cc4ccc3c2cc1OC)OCO5 [NTD-313]	
> 111 µM		COc1cc2c(N(C)C)nc3c4cc5c(cc4ccc3c2cc1OC)OCO5 [NTD-329]	
> 111 µM	+ (n = 2) (+ is 20-50%)	COc1cc2c(NCCN3CCOCC3)nc3c4cc5c(cc4ccc3c2cc1OC)OCO5 [NTD-309]	
18.2 ± 1.15 µM	+ (+ is 20-50%)	CN(C)CCn1c(=O)c2cc3c(cc2c2ccc4ccccc4c21)OCO3 [TWL-40]	
> 111 µM	++ (++ is 50-75%)	COc1cc2c(=O)n(CCN(C)C)c3c4cc(O)c(O)cc4ccc3c2cc1OC [TWL-164]	
> 111 µM	+ (+ is 20-50%)	CN(C)CCn1c(=O)c2ccccc2c2ccc3cc4c(cc3c21)OCO4 [TWL-67]	
> 111 µM	+ (+ is 20-50%)	COc1cc2c(NCCCN3CCN(C)CC3)nc3c4cc5c(cc4ccc3c2cc1OC)OCO5 [NTD-312]	
> 111 µM		CCN(CC)CC[n+]1cc2cc(OC)c(OC)cc2c2ccc3cc4c(cc3c21)OCO4 [NTD-195]	
67.6 µM		COc1cc2ccc3c4cc5c(cc4c(=O)n(CCN(C)C)c3c2cc1OC)OCO5 [TWL-107]	
20.6 ± 4.46 µM	0 (0 is inactive)	COc1cc2c(OCCCN3CCC3)nc3c4cc5c(cc4ccc3c2cc1OC)OCO5 [NTD-225]	
27.6 ± 19 µM	+ (+ is 20-50%)	CN(C)CCn1c(=O)c2cc3c(cc2c2ccc4cc5c(cc4c21)OCO5)OCO3 [TWL-37]	
64.2 ± 23.9 µM		COc1cc2c[n+](CCN(C)C)c3c4cc5c(cc4ccc3c2cc1OC)OCO5 [NTD-191]	
56.2 µM		COc1cc2c(NCCN3CCCC3)nc3c4cc5c(cc4ccc3c2cc1OC)OCO5 [NTD-307]	
